Laboratory results taken from PubChem BioAssay (NCI).
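Results reflect a 48-hour exposure of cells in 96-well plates to compound at five concentrations. The concentration for full growth arrest is given as TGI.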

Tests used:
Assay in all cases: NCI anticancer screen, dose series, 48 h
[1] = tested on: DU-145 prostate
[2] = tested on: KM12 colon
[3] = tested on: NCI-H226 lung
[4] = tested on: NCI/ADR-RES ovarian
[5] = tested on: OVCAR-4 ovarian
[6] = tested on: RXF 393 renal
[7] = tested on: SK-MEL-5 melanoma
[8] = tested on: SW-620 colon
[9] = tested on: T-47D breast
[10] = tested on: SF-539 CNS

SMILES	TGI [1]	TGI [2]	TGI [3]	TGI [4]	TGI [5]	TGI [6]	TGI [7]	TGI [8]	TGI [9]	TGI [10]
Cc1cc(O)c(C(C)C)cc1NC(=O)Nc1cccc2ccccc12	28.3 µM	38.8 µM	46.7 µM	76.2 µM	24.4 µM	29.4 µM	27.4 µM	> 100 µM	> 100 µM	–
Cc1ccccc1N=C(N)NC#N	> 100 µM	–	–	> 100 µM	> 100 µM	> 100 µM	> 100 µM	> 100 µM	–	> 100 µM
Cc1ccc(S(=O)(=O)NC(=O)NC(Cc2c[nH]c3ccccc23)C(=O)O)cc1 (stereo unspecified)	> 100 µM	> 100 µM	–	> 100 µM	> 100 µM	> 100 µM	> 100 µM	> 100 µM	> 100 µM	> 100 µM
COc1ccc2oc(S(=O)(=O)N3CC(CCl)c4ccc([N+](=O)[O-])cc43)cc2c1 (stereo unspecified)	0.317 µM	0.418 µM	1.43 µM	4.03 µM	> 100 µM	–	5.45 µM	> 100 µM	79.8 µM	0.308 µM
O=S(=O)(c1cc(Cl)ccc1Cl)N1CCN(S(=O)(=O)c2cc(Cl)ccc2Cl)CC1	29.6 µM	> 100 µM	> 100 µM	> 100 µM	–	> 100 µM	> 100 µM	> 100 µM	> 100 µM	> 100 µM
COc1ccc(/C=N\N2CC(=O)N3C4C=CC(CC4)N3C2=O)cc1 (stereo unspecified)	> 100 µM	> 100 µM	> 100 µM	> 100 µM	–	–	> 100 µM	> 100 µM	> 100 µM	> 100 µM
C[C@]12CC[C@H]3[C@@H](CCC4=CC(=O)C=C[C@@]43O)[C@@H]1CCC2=O	> 100 µM	> 100 µM	> 100 µM	> 100 µM	–	> 100 µM	> 100 µM	> 100 µM	> 100 µM	> 100 µM
CO/C(=N\N=C\c1ccc(Cl)cc1)c1ccncc1	–	> 100 µM	> 100 µM	–	> 100 µM	> 100 µM	> 100 µM	> 100 µM	–	> 100 µM
O=C(NCC1Nc2ccncc2S(=O)(=O)N1)c1ccc(Br)cc1 (stereo unspecified)	> 100 µM	> 100 µM	> 100 µM	> 100 µM	> 100 µM	> 100 µM	> 100 µM	> 100 µM	> 100 µM	–
CCCCC/C=C1/CC(CO)(COC(=O)CC(C(C)C)C(C)C)OC1=O (stereo unspecified)	27.8 µM	30.5 µM	24.9 µM	38.9 µM	41.8 µM	29.8 µM	21.5 µM	50.8 µM	40.5 µM	–
O=C1C=Cc2c(Cl)sc(Cl)c21	5.29 µM	–	16.1 µM	5.32 µM	37.1 µM	4.28 µM	8.09 µM	–	> 22.7 µM	–
COc1cc(C2c3cc4c(cc3C(O)C3CCC(=O)N23)OCO4)cc(OC)c1OC (stereo unspecified)	> 100 µM	> 100 µM	79.3 µM	> 100 µM	–	–	> 100 µM	> 100 µM	> 100 µM	–
Cc1nc2c(cc1C(=O)NN)c(=O)n(C)c(=O)n2C	> 100 µM	> 100 µM	> 100 µM	> 100 µM	> 100 µM	> 100 µM	> 100 µM	> 100 µM	> 100 µM	–
CCCC(Sc1nc(N)nc2nc[nH]c12)C(=O)O (stereo unspecified)	> 100 µM	> 100 µM	> 100 µM	> 100 µM	> 100 µM	> 100 µM	> 100 µM	> 100 µM	> 100 µM	–
CN(C(=O)C12C3C4(C(=O)O)C1(C(=O)N(C)C(C)(C)C)C1C2(C(=O)O)C3(C(=O)N(C)C(C)(C)C)C14C(=O)N(C)C(C)(C)C)C(C)(C)C (stereo unspecified)	> 100 µM	> 100 µM	–	> 100 µM	> 100 µM	> 100 µM	> 100 µM	> 100 µM	> 100 µM	> 100 µM
C=CCOc1ccc(C2c3c([nH][nH]c3=O)CC(O)(OCC)C2C(=O)OCC)cc1OC (stereo unspecified)	> 100 µM	> 100 µM	–	> 100 µM	> 100 µM	–	> 100 µM	> 100 µM	> 100 µM	> 100 µM
O=C(CCc1cccc(O)c1)NCCc1cccc(O)c1	> 100 µM	> 100 µM	> 100 µM	> 100 µM	> 100 µM	> 100 µM	> 100 µM	–	> 100 µM	> 100 µM
CC1=NN(c2cccc(Cl)c2)C2(C1)C(Cl)C(=O)N2c1nc2ccccc2s1 (stereo unspecified)	> 100 µM	> 100 µM	43.4 µM	69.7 µM	> 100 µM	59.1 µM	44.4 µM	> 100 µM	97.4 µM	–
COc1cc(Oc2nc3ccccc3nc2C(=O)O)cc(OC)c1OC	> 100 µM	> 100 µM	> 100 µM	> 100 µM	> 100 µM	> 100 µM	> 100 µM	> 100 µM	> 100 µM	–
COC(=O)c1c(OC(C)=O)ccc2c1c1c(OC(C)=O)c3ccccc3c(OC(C)=O)c1n2Cc1cc(OC)cc(OC)c1	> 100 µM	8.13 µM	> 100 µM	> 100 µM	> 100 µM	> 100 µM	24.3 µM	–	48.9 µM	9.27 µM
C=Nc1ccc([N+](=O)[O-])cc1	–	> 100 µM	> 100 µM	–	> 100 µM	–	> 100 µM	> 100 µM	–	> 100 µM
Cc1cccc2c1C(=O)C1(Cc3ccccc3C1=O)C2 (stereo unspecified)	> 100 µM	–	> 100 µM	> 100 µM	> 100 µM	> 100 µM	> 100 µM	> 100 µM	> 100 µM	> 100 µM
COC(=O)C1=C(C)N2CCCOC2(C)C(C(=O)OC)C1c1cccc(Cl)c1 (stereo unspecified)	–	43.9 µM	59.6 µM	–	> 100 µM	> 100 µM	> 100 µM	> 100 µM	–	93.8 µM
CCOC(=O)C(=[N+]=[N-])C(=O)C[N+]12CCN(CC1)CC2	> 100 µM	> 100 µM	> 100 µM	> 100 µM	> 100 µM	> 100 µM	> 100 µM	> 100 µM	> 100 µM	–
